Source: US20090099212A1, “A3 ADENOSINE RECEPTOR ANTAGONISTS” (priority 2007, published 2009)

How the values were obtained:
A3 adenosine receptor = target: T1, A3 adenosine receptor (Homo sapiens, UniProt P0DMS8); test: Radioligand binding competition, A3 AdoR (125I-AB-MECA), membranes of HEK-A3 or CHO-A3 cells
T1 construct: expressed in transfected cells; host or cells: HEK-293 or CHO cells (HEK-A3 or CHO-A3), membranes
T1 sequence (P0DMS8 1-318): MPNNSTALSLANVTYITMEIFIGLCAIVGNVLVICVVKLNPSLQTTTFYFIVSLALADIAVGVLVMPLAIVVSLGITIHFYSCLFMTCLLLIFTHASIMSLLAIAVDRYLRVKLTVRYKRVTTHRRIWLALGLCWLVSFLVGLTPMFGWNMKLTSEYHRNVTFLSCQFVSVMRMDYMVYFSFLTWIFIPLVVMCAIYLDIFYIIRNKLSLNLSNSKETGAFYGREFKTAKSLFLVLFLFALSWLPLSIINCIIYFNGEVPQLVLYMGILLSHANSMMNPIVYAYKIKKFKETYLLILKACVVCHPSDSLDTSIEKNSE
Protocol: The cDNAs for human A1, A2A, A2B or A3 AdoRs were prepared by RT-PCR from total RNA of human cells or tissues and sequenced on both strands. The expression vector containing each of these cDNAs and a second vector containing a neomycin or puromycin-resistance gene were introduced to HEK-293 or CHO cells by Lipofectin-Plus (Life Technology). Colonies were selected by growing transfected cells in the presence of neomycin or puromycin. Stably transfected cells were maintained in Dulbecco's modified Eagle's medium (DMEM) or F-12 medium with 10% fetal bovine serum, 100 μg/ml penicillin, 100 μg/ml streptomycin and appropriate concentrations of neomycin or puromycin. These stably transfected cells were referred to as HEK-“AdoR” or CHO-“AdoR” depending on the receptors that they express. For example, cells that were transfected with A3 AdoRs were referred to as HEK-A3 or CHO-A3.
Monolayers of transfected cells were washed with phosphate buffered saline (PBS) and harvested in a buffer containing 10 mM HEPES (pH 7.4), 10 mM EDTA and protease inhibitors. The cells were homogenized in polytron for 1 minute at setting 4 and centrifuged at 29000 g for 15 minutes at 4° C. The cell pellets were washed with a buffer containing 10 mM HEPES (pH7.4), 1 mM EDTA and protease inhibitors, and were resuspended in the same buffer supplemented with 10% sucrose. Frozen aliquots were kept at −80° C.
The affinities of compounds for A1, A2A, A2B or A3 AdoRs were determined in competition studies using radioligands such as ^3H-CPX (A1 antagonist), or ^3H-CCPA (A1 agonist), ^3H-ZM241385 (A2A antagonist) or ^3H-CGS21680 (A2A agonist), ^3H-ZM241385 (A2B antagonist) or ^125I-AB-MECA (A3 agonist) and membranes of corresponding transfected cells. For example, to determine the affinity for A3 AdoRs, the competition assays were started by mixing 0.2 nM ^125I-AB-MECA with various concentrations of test compounds and 25 ug membrane proteins of HEK-A3 or CHO-A3 in TEM buffer (50 mM Tris, 1 mM EDTA and 10 mM MgCl2) supplemented with 1 U/ml adenosine deaminase. The assays were incubated for 90 minutes, stopped by filtration onto GF/B filter plates using Packard Harvester and washed four times with ice-cold TM buffer (10 mM Tris, 1 mM MgCl2, pH 7.4). The amounts of radioligands that bound to the GF/B filter plates were determined by scintillation counting. Nonspecific binding was determined in the presence of 10 μM R-PIA (phenylisopropyladenosine) or 1 μM IB-MECA. Bmax and KD values were calculated using GraphPad software.

A2A adenosine receptor = target: T2, A2A adenosine receptor (Homo sapiens, UniProt P29274); test: Radioligand binding competition, A2A AdoR (3H-ZM241385 or 3H-CGS21680), membranes of transfected cells; settings: Table 2
T2 construct: expressed in transfected cells; host or cells: HEK-293 or CHO cells, membranes
T2 sequence (P29274 whole entry): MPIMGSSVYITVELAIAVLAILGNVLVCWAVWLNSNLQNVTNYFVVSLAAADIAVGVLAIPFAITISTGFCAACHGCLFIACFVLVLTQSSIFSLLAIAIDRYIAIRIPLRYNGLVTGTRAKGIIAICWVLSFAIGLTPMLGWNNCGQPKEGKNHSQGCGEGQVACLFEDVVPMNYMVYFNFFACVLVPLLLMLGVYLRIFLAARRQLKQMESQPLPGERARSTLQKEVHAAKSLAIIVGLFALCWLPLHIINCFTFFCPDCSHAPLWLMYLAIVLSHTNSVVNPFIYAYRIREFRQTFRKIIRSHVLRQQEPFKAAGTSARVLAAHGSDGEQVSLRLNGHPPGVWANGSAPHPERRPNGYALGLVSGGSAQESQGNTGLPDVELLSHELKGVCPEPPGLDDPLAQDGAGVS
Protocol: (§1) The cDNAs for human A1, A2A, A2B or A3 AdoRs were prepared by RT-PCR from total RNA of human cells or tissues and sequenced on both strands. The expression vector containing each of these cDNAs and a second vector containing a neomycin or puromycin-resistance gene were introduced to HEK-293 or CHO cells by Lipofectin-Plus (Life Technology). Colonies were selected by growing transfected cells in the presence of neomycin or puromycin. Stably transfected cells were maintained in Dulbecco's modified Eagle's medium (DMEM) or F-12 medium with 10% fetal bovine serum, 100 μg/ml penicillin, 100 μg/ml streptomycin and appropriate concentrations of neomycin or puromycin. […]
(§2) The affinities of compounds for A1, A2A, A2B or A3 AdoRs were determined in competition studies using radioligands such as ^3H-CPX (A1 antagonist), or ^3H-CCPA (A1 agonist), ^3H-ZM241385 (A2A antagonist) or ^3H-CGS21680 (A2A agonist), ^3H-ZM241385 (A2B antagonist) or ^125I-AB-MECA (A3 agonist) and membranes of corresponding transfected cells. […] The amounts of radioligands that bound to the GF/B filter plates were determined by scintillation counting. Nonspecific binding was determined in the presence of 10 μM R-PIA (phenylisopropyladenosine) or 1 μM IB-MECA. Bmax and KD values were calculated using GraphPad software.

A1 adenosine receptor = target: T3, A1 adenosine receptor (Homo sapiens, UniProt P30542); test: Radioligand binding competition, A1 AdoR (3H-CPX or 3H-CCPA), membranes of transfected cells; settings: Table 2
T3 construct: expressed in transfected cells; host or cells: HEK-293 or CHO cells, membranes
T3 sequence (P30542 1-326): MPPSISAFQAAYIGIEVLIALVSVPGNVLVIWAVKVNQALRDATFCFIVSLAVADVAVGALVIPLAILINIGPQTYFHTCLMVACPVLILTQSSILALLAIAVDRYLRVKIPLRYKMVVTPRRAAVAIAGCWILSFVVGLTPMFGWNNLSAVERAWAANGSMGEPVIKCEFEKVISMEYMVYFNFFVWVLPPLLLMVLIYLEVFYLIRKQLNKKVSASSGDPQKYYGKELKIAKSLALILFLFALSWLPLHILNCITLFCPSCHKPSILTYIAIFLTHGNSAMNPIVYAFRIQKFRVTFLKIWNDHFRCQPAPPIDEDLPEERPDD
Protocol: as §1, §2

[1] = Table 1, 0.2 nM 125I-AB-MECA, HEK-A3 or CHO-A3 membranes
[2] = Table 2, 125I-AB-MECA competition

| Ki (A3 adenosine receptor; [1]) [nM] | Molecule | other results |
| --- | --- | --- |
| 7 | CCn1c(-n2cccn2)nc2c(N)nc(NCc3ccccc3)nc21 [(6-amino-9-ethyl-8-pyrazolylpurin-2-yl)benzylamine] | – |
| 2 | CCn1c(-n2cc(C)cn2)nc2c(N)nc(NCc3ccccc3)nc21 [[6-amino-9-ethyl-8-(4-methylpyrazolyl)purin-2-yl]benzylamine] | Ki (A2A adenosine receptor): 2040 nM; Ki (A1 adenosine receptor): 225 nM |
| 52 | (6-amino-9-propyl-8-pyrazolylpurin-2-yl)(2-phenylethyl)amine | – |
| 112 | (6-amino-9-propyl-8-pyrazolylpurin-2-yl)[2-(2,5-dimethoxyphenyl)ethyl]amine | – |
| 82 | (6-amino-9-propyl-8-pyrazolylpurin-2-yl)[2-(3-fluorophenyl)ethyl]amine | – |
| 210 | (6-amino-9-propyl-8-pyrazolylpurin-2-yl)[2-(4-fluorophenyl)ethyl]amine | – |
| – | ((1S)-1-phenylethyl)[6-amino-8-(4-methylpyrazolyl)-9-propylpurin-2-yl]amine | Ki (A3 adenosine receptor; [2]): 0.9 nM |
| 910 | N-{2-[(2-phenylethyl)amino]-9-propyl-8-pyrazolylpurin-6-yl}[3-(trifluoromethyl)phenyl]carboxamide | – |
| 3120 | N-{2-[(2-phenylethyl)amino]-9-propyl-8-pyrazolylpurin-6-yl}[4-(trifluoromethyl)phenyl]carboxamide | – |
| 3 | N-{9-ethyl-2-[benzylamino]-8-pyrazolylpurin-6-yl}-2-methoxyacetamide | Ki (A3 adenosine receptor; [2]): 3 nM; Ki (A1 adenosine receptor): 3950 nM |

| Molecule | Ki (A3 adenosine receptor; [1]) [nM] | other results |
| --- | --- | --- |
| CCn1c(-n2cc(-c3cccc(C(F)(F)F)c3)cn2)nc2c(N)nc(NCc3ccccc3)nc21 [(6-amino-9-ethyl-8-{4-[3-(trifluoromethyl)phenyl]pyrazolyl}purin-2-yl)benzylamine] | 1480 | – |
| CCn1c(-n2cc(C)cn2)nc2c(NC(=O)C(C)(C)C)nc(NCc3ccccc3)nc21 [N-{9-ethyl-8-(4-methylpyrazolyl)-2-[benzylamino]purin-6-yl}-2,2-dimethylpropanamide] | 18.6 | – |
